From patent US9770451B2, “Composition including ATM inhibitor for reducing cellular senescence and use of the composition” (Samsung Electronics Co., Ltd., priority 2014, dated 2017) come the findings set out here.

Each structure is given as a SMILES string.

Series [1] has as its system senescent fibroblasts (passage 37). In words: Cell proliferation and formation of cell colonies (crystal violet staining). It is filed as cell-based, human. As to conditions: among 0.1, 0.5 and 2 μM. The procedure: A human fibroblast cell line was inoculated into a Dulbecco's Modified Eagle's medium (DMEM) containing 10% fetal bovine serum (FBS), 100 units/ml of penicillin, and 100 μg/ml of streptomycin (wherein these two antibiotics were purchased from Gibro-BRL, Grand Island, N.Y.), and then, cultured in a 5% CO2 incubator at a temperature of 37° C. The fibroblast cell line (i.e., M11 strain) was a cell line derived from the foreskin of a child. When the cells were grown to about 85% confluency in a plate, the cells were subjected to subculture. The early subculture was carried out at a split ratio of 1:4, and the late subculture was carried out at a split ratio of 1:2. When the cell doubling time was 14 days, the cells were considered to be senescent fibroblasts (passages 35 to 37).
To determine the optimal concentration upon the treatment with an ATM-kinase inhibitor KU-60019 (SELLECKCHEM, S1570, salt), the senescent fibroblasts (passage 37) were inoculated into each well of a 6-well plate at a concentration of 2,000 cells/well, and then, KU-60019 was added to each well of the 6-well plate ([…]). In addition, as a negative control group, the cells were cultured under the same conditions as described above, except that a medium used herein contained a dimethyl sulfoxide (DMSO) (0.05 (v/v) %) medium. […]

Series [2] shares this test system. In words: Soft agar assay for abnormal (cancer-like) proliferation. Format: cell-based, human. The conditions noted are these: 0.5 μM, 4 weeks; 293T cells formed colonies. The procedure: In addition, to confirm whether the cells proliferated by the culture proliferate abnormally, for example, proliferate like cancer cells, a soft agar assay was carried out. First, the DMEM medium containing 10% FBS was mixed with a 1.6% agar medium at a ratio of 1:1, so as to prepare a medium containing 0.8% agar formulation to coat the bottom of each well of a 6-well plate. […] As a control group, a 293T cell line (ATCC® CRL-11268™) from human embryonic kidney was used. […] The same procedure applies similarly to the remaining images b, c, and d. In FIG. 3, HDF M11 p37 refers to a human dermal fibroblast M11 strain, which is a sub-cultured fibroblast (passage 37). In FIG. 3, KU-60019-KU-60019 refers to a process of continuously adding KU-60019 to a medium and culturing for 28 days; KU-60019-DMSO refers to a process of adding KU-60019 to a medium and culturing for 14 days, removing KU-60019, and then, culturing the cells in the absence of KU-60019 for another 14 days; DMSO-DMSO refers to a condition where KU-60019 is not added at all and the cells cultured for 28 days. The 293T cells were cultured under the same condition as DMSO-DMSO, and then, applied to the soft agar assay.

The subject of a further series is C57BL/6J mice. The series is described as follows: Wound healing assay (full-thickness punch-biopsy wounds). It is filed as in vivo, mouse. As to conditions: for closure difference between KU-60019-treated and DMSO-treated wounds: day 7; for mean wound closure: day 7, topical 5 μM in 30% Pluronic gel daily. How it is done:
To further test whether ATMi can promote cutaneous wounding healing in young (3 months old) and old (19 months old) male mice (C57BL/6J mice), four full-thickness punch-biopsy wounds (8 mm in diameter) were created on the dorsal skin of mouse (5 mice/experimental group), drug at a concentration of 5 μM KU-60019 in 30% Pluronic gel (Pluronic F-127 Sigma, P2443-1 KG) 0.5 mL was applied to wounds every day, and then covered the wounds with Telfa sponges (Kendall Health Care, Mansfield, Mass., USA). All animal studies were reviewed and approved by the […] Animal Care and Use Committee of SKKU School of Medicine (SUSM). SUSM is an Association for Assessment and Accreditation of Laboratory Animal Care international accredited facility and abides by the Institute for Laboratory Animal Research guide. Wounds were photographed for 10 days. Immunohistochemistry analyses were performed on 5 μm paraffin embedded sections as described previously (Lin et. al., 2004. Developmental Biology 270, 474-486). Primary antibodies used for immunohistochemistry were mouse anti-α-smooth muscle actin (Sigma, F3777-2ML, 1:500), and mouse anti-PCNA (Santa Cruz Biotechnology, SC-56, 1:500). Secondary antibodies used for immunohistochemistry were EnVision™ Detection System (DAKO, K5007). Masson-Trichrome staining was performed according to the manufacturer's instructions (Polysciences Inc., Warrington Pa., USA).
To further test whether KU-60019 can promote cutaneous wounding healing in young (3 months old) and old (19 months old) mice, we created full-thickness punch-biopsy wounds 8 mm in diameter on the dorsal skin of 10 mice (5 mice/each group), applied to the wounds at a concentration of 5 μM KU-60019 in 30% Pluronic gel (Pluronic F-127 Sigma, P2443-1 KG), and then covered the wounds with Telfa sponges (Kendall Health Care, Mansfield, Mass., USA). Pluronic F-127 is a hydrogel widely used in pharmaceuticals as a drug delivery vehicle for a variety of soluble mediators, including antibodies, cytokines, and growth factors. […] Only 13.5% closure difference was shown between KU-60019-treated and DMSO-treated wounds. […] 20% closure difference was shown between KU-60019-treated and DMSO-treated wounds. […] KU-60019-treated wounds are capable of complete and efficient closure.

With `C[C@@H]1CN(CC(=O)Nc2ccc3c(c2)Cc2cccc(-c4cc(=O)cc(N5CCOCC5)o4)c2S3)C[C@H](C)O1` [KU-60019, 2-((2S,6R)-2,6-dimethylmorpholino)-N-(5-(6-morpholino-4-oxo-4H-pyran-2-yl)-9H-thioxanthen-2-yl)acetamide], the “most effective concentration selected” value in series [1] came to 0.5 µM. For the same compound, the “colony formation in soft agar” value in series [2] is “colonies were not formed”. Moreover, the “closure difference between KU-60019-treated and DMSO-treated wounds” value worked out at 20% with C57BL/6J mice (old mouse (19 months old)) and 13.5% in the series with C57BL/6J mice (young mouse (3 months old)). The mean wound closure with C57BL/6J mice (old mouse (19 months old), control 49.4%) amounted to 69.4%; in the series on C57BL/6J mice (young mouse (3 months old), control 74.1%), 87.6%.
